Data on twelve molecules can be found in US4489094A, “Arylalkylaminobenzoic acids” (American Cyanamid Company, priority 1983, dated 1984).

For the assay, the target named is T1, fatty acyl CoA: cholesterol acyl transferase (ACAT) (Rattus norvegicus, UniProt O70536).
T1 construct: Rat adrenals were homogenized; from tissue; host or cells: rat adrenals, 1,000 x g supernatant containing the microsomal fraction
T1 sequence (O70536 1-545): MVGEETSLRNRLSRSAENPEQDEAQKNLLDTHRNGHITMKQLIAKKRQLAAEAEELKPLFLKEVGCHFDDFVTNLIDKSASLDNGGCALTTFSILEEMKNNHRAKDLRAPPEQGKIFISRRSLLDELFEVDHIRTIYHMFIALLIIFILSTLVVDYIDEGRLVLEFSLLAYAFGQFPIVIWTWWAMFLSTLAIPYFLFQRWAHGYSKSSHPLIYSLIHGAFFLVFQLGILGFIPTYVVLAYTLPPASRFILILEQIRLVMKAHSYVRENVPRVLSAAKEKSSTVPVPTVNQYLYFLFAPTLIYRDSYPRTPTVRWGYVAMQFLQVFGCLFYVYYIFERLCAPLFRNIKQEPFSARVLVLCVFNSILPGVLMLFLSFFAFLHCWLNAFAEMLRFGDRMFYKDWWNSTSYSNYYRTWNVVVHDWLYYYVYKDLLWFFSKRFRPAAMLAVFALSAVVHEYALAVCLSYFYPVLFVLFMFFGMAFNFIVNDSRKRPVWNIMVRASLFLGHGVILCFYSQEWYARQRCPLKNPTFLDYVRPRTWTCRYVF
As to the kind of experiment: Inhibition of enzymatic esterification of cholesterol (ACAT), rat adrenal microsomal supernatant. In kind it is biochemical. The following applies: final concentration of test compound 5.2 μg./ml.; percent inhibition of the ACAT enzyme compared to control values. The procedure: The compounds of the present invention were tested for their ability to inhibit the enzymatic esterification of cholesterol according to the following procedure:
Rat adrenals were homogenized in 0.2M monobasic potassium phosphate buffer, pH 7.4, and centrifuged at 1,000 times gravity for 15 minutes at 5° C. The supernatant, containing the microsomal fraction, served as the source of the cholesterol-esterifying enzyme, fatty acyl CoA: cholesterol acyl transferase (ACAT). A mixture comprising 50 parts of adrenal supernatant, 10 parts of albumin (BSA) (50 mg./m.), […], 3 parts of test compound, and 500 parts of buffer was pre-incubated at 37° C. for 10 minutes. After treatment with 20 parts of oleoyl CoA (^14 C-0.4 μCi), the mixture was incubated at 37° C. for 10 minutes. A control mixture, omitting the test compound, was prepared and treated in the same manner. The lipids from the incubation mixture were extracted into an organic solvent and separated by thin-layer chromatography. The cholesterol ester fraction was counted in a scintillation counter. This procedure is a modification of that described by Hashimoto, et al. Life Scie., 12 (Part II), 1-12 (1973).
The results of this test on representative compounds of this invention appear in Table I. The final concentration of the test compound was 5.2 μg./ml., and effectiveness of the compound is expressed as percent inhibition of the ACAT enzyme compared to control values.
For the molecule `O=C(O)c1ccc(NCc2ccc(Cl)cc2)cc1` [4-[[(p-chlorophenyl)methyl]amino]benzoic acid], the inhibition (usually how much of the control response was suppressed) at 5.2 µg/mL turned out to be 6%. The same measure for `O=C(O)c1ccc(NCC(c2ccc(Cl)cc2)c2ccc(Cl)cc2)cc1` [4-[[2,2-Bis(p-chlorophenyl)ethyl]amino]benzoic acid]: 19%; for `CCOC(=O)c1ccc(N(CC)CCCc2ccc(Cl)cc2)cc1` [4-[[3-(p-Chlorophenyl)propyl]ethylamino]benzoic acid, ethyl ester]: 48%; for `O=C(O)c1ccc(NCC=C(c2ccc(Cl)cc2)c2ccc(Cl)cc2)cc1` [4-[[3,3-Bis(p-chlorophenyl)allyl]amino]benzoic acid]: 46%.

`CCN(CCCc1ccc(Cl)cc1)c1ccc(C(=O)O)cc1` [4-[[3-(p-Chlorophenyl)propyl]ethylamino]benzoic acid]: the inhibition at 5.2 µg/mL amounted to 33%. As for `CCOC(=O)c1ccc(NC(c2ccc(Cl)cc2)c2ccc(Cl)cc2)cc1` [4-[[Bis(p-chlorophenyl)methyl]amino]benzoic acid, ethyl ester], the figure is 55%; as for `CCOC(=O)c1ccc(N(C)CCCc2ccc(Cl)cc2)cc1` [4-[[3-(p-Chlorophenyl)propyl]methylamino]benzoic acid, ethyl ester], 53%; as for `CCOC(=O)c1ccc(NCCC(c2ccc(Cl)cc2)c2ccc(Cl)cc2)cc1` [4-[[3,3-Bis(p-chlorophenyl)propyl]amino]benzoic acid, ethyl ester], 89%. As for `O=C(O)c1ccc(N(CCCc2ccc(Cl)cc2)CCCc2ccc(Cl)cc2)cc1` [4-[Bis[3-(p-chlorophenyl)propyl]amino]benzoic acid], 5.2 µg/mL produced 33% inhibition. As for `O=C(O)c1ccc(NCCC(c2ccc(Cl)cc2)c2ccc(Cl)cc2)cc1` [4-[[3,3-Bis(p-chlorophenyl)propyl]amino]benzoic acid], the figure is 21%. The same measure for `CCOC(=O)c1ccc(NCC=C(c2ccc(Cl)cc2)c2ccc(Cl)cc2)cc1` [4-[[3,3-Bis(p-chlorophenyl)allyl]amino]benzoic acid, ethyl ester]: 81%; for `CN(CCCc1ccc(Cl)cc1)c1ccc(C(=O)O)cc1` [4-[[3-(p-Chlorophenyl)propyl]methylamino]benzoic acid]: 24%.
